Reference: patent publication US20230271954A1 (Gossamer Bio Services, Inc., priority 2020, published 2023)
pIC50: −log10 of the molar value.

How the values were obtained:
DGKα = DGKα (Homo sapiens, UniProt P23743); assay: DGKα biochemical assay (ADP-Glo); conditions: read-out: DGK α IC50
Procedure, shortened: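 ADP-Glo kinase assay using OAG/PS (1:2) lipid substrate, sonicated, in HEPES pH 7.0 buffer with MgCl2, CaCl2, DTT, BSA, Triton X-100. Enzyme preincubated with compound 30 min at RT; substrate with ATP (DGKα: 400 μM) added, 45 min RT. Luminescence read; % inhibition vs DMSO and no-enzyme controls.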

DGKζ = molecular target: T1, DGKζ (Homo sapiens, UniProt Q13574); assay: DGKζ biochemical assay (ADP-Glo); conditions: read-out: DGK ζ IC50
T1 construct: purchased Carna 12-110
T1 sequence (Q13574 1-929 isoform Q13574-4): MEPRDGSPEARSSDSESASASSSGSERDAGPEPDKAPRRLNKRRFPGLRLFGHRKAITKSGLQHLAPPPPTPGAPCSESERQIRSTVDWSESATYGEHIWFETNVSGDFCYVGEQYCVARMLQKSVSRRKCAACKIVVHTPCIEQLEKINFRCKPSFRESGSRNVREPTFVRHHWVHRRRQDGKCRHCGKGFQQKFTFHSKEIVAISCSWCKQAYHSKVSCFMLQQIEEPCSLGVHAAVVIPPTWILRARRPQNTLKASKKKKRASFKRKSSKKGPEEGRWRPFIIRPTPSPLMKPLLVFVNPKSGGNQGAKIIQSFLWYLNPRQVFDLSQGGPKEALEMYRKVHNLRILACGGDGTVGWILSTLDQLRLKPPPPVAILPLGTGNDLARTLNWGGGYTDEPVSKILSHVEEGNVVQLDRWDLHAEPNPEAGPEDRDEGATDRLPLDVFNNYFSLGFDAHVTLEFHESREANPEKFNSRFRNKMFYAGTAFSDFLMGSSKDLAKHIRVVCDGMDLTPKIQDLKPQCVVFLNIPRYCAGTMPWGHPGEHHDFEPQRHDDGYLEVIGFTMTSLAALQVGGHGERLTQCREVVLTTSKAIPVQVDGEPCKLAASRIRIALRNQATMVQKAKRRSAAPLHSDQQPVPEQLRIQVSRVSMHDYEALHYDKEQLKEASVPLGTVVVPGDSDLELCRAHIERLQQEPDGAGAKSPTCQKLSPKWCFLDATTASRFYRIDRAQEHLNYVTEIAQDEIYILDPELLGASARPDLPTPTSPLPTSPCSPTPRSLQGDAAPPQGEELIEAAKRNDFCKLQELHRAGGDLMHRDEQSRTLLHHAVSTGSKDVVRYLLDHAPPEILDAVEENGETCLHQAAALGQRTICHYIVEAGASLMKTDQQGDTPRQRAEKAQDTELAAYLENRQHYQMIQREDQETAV

DGKα, sequence (P23743 whole entry): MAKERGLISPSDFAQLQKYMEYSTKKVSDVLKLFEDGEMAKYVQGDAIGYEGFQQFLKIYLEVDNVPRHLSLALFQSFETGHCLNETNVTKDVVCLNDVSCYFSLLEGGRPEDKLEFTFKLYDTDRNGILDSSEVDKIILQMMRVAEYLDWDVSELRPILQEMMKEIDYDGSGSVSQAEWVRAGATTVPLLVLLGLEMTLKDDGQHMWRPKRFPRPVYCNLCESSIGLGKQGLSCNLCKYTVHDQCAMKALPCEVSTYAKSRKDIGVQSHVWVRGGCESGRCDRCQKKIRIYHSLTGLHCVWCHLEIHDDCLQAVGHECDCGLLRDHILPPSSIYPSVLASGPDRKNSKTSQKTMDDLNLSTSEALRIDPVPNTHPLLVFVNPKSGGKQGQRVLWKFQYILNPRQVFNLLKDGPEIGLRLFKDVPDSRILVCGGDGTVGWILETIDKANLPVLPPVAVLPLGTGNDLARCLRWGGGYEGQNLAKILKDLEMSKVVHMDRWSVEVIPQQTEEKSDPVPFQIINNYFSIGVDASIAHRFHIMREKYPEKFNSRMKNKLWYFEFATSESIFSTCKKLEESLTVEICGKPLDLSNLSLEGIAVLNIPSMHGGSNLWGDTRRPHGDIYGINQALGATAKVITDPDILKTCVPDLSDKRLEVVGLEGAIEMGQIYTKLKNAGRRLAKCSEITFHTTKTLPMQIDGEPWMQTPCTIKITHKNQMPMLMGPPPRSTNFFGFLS

Row | pIC50 (DGKα) | pIC50 (DGKζ) | SMILES
1 | 6.00 to 7.00 | 6.00 to 7.00 | Cc1ccc(N(CC2CCOC2)[C@H]2CC[C@@H](N(C)c3cc(=O)n(C)c4ccc(C#N)nc34)CC2)cc1OC(F)F (stereo partly drawn) [Example 162, cis-8-((-4-((3-(difluoromethoxy)-4-methylphenyl) ((tetrahydrofuran-3-yl)methyl)amino)cyclohexyl) (methyl)amino)-5-methyl-6-oxo-5,6-dihydro-1,5-naphthyridine-2-carbonitrile]
2 | > 8.00 | 6.00 to 7.00 | Cn1c(=O)cc(N(C)[C@H]2CC[C@@H](N(CC3COCCO3)c3ccc(F)cc3)CC2)c2nc(C#N)ccc21 (stereo partly drawn) [Example 163, cis-8-((-4-(((1,4-dioxan-2-yl)methyl)(4-fluorophenyl)amino)cyclohexyl)(methyl)amino)-5-methyl-6-oxo-5,6-dihydro-1,5-naphthyridine-2-carbonitrile]
3 | 6.00 to 7.00 | 6.00 to 7.00 | Cc1cc(F)ccc1N(CC1CCOC1)[C@H]1CC[C@@H](N(C)c2cc(=O)n(C)c3ccc(C#N)nc23)CC1 (stereo partly drawn) [Example 164, cis-8-((-4-((4-fluoro-2-methylphenyl) ((tetrahydrofuran-3-yl)methyl)amino)cyclohexyl) (methyl)amino)-5-methyl-6-oxo-5,6-dihydro-1,5-naphthyridine-2-carbonitrile]
4 | 6.00 to 7.00 | 6.00 to 7.00 | Cc1cc(F)ccc1N(C[C@H]1CCOC1)[C@H]1CC[C@H](N(C)c2c(C#N)c(=O)n(C)c3ccc(C#N)nc23)CC1 [Example 165, trans-8-((-4-((4-fluoro-2-methylphenyl)(((R)-tetrahydrofuran-3-yl)methyl)amino)cyclohexyl) (methyl)amino)-5-methyl-6-oxo-5,6-dihydro-1,5-naphthyridine-2,7-dicarbonitrile]
5 | ≤ 6.00 | 6.00 to 7.00 | Cc1cc(F)ccc1N(C[C@@H]1CCOC1)[C@H]1CC[C@H](N(C)c2c(C#N)c(=O)n(C)c3ccc(C#N)nc23)CC1 [Example 166, trans-8-((-4-((4-fluoro-2-methylphenyl)(((S)-tetrahydrofuran-3-yl)methyl)amino)cyclohexyl) (methyl)amino)-5-methyl-6-oxo-5,6-dihydro-1,5-naphthyridine-2,7-dicarbonitrile]
6 | 6.00 to 7.00 | 7.00 to 8.00 | Cc1cc(F)ccc1N(C[C@H]1CCCO1)[C@H]1CC[C@H](N(C)c2c(C#N)c(=O)n(C)c3ccc(C#N)nc23)CC1 [Example 167, trans-8-((-4-((4-fluoro-2-methylphenyl)(((R)-tetrahydrofuran-2-yl)methyl)amino)cyclohexyl) (methyl)amino)-5-methyl-6-oxo-5,6-dihydro-1,5-naphthyridine-2,7-dicarbonitrile]
7 | ≤ 6.00 | 6.00 to 7.00 | Cc1cc(F)ccc1N(C[C@@H]1CCCO1)[C@H]1CC[C@H](N(C)c2c(C#N)c(=O)n(C)c3ccc(C#N)nc23)CC1 [Example 168, trans-8-((-4-((4-fluoro-2-methylphenyl)(((S)-tetrahydrofuran-2-yl)methyl)amino)cyclohexyl) (methyl)amino)-5-methyl-6-oxo-5,6-dihydro-1,5-naphthyridine-2,7-dicarbonitrile]
8 | 7.00 to 8.00 | 7.00 to 8.00 | Cn1c(=O)cc(N(C)[C@H]2CC[C@@H](N(CC3CCC3)c3ccc4c(c3)OCCO4)CC2)c2nc(C#N)ccc21 [Example 169, cis-8-((4-((cyclobutylmethyl)(2,3-dihydrobenzo[b] [1,4]dioxin-6-yl)amino)cyclohexyl)(methyl)amino)-5-methyl-6-oxo-5,6-dihydro-1,5-naphthyridine-2-carbonitrile]
9 | 7.00 to 8.00 | 7.00 to 8.00 | Cn1c(=O)c(C#N)c(N(C)[C@H]2CC[C@@H](N(CC3CCC3)c3ccc4c(c3)OCCO4)CC2)c2nc(C#N)ccc21 [Example 170, cis-8-((4-((cyclobutylmethyl)(2,3-dihydrobenzo[b] [1,4]dioxin-6-yl)amino)cyclohexyl)(methyl)amino)-5-methyl-6-oxo-5,6-dihydro-1,5-naphthyridine-2,7-dicarbonitrile]
10 | 6.00 to 7.00 | 6.00 to 7.00 | Cn1c(=O)c(C#N)c(N(C)[C@H]2CC[C@H](N(CC3CCC3)c3ccc4c(c3)OCCO4)CC2)c2nc(C#N)ccc21 [Example 171, trans-8-((4-((cyclobutylmethyl)(2,3-dihydrobenzo[b] [1,4]dioxin-6-yl)amino)cyclohexyl)(methyl)amino)-5-methyl-6-oxo-5,6-dihydro-1,5-naphthyridine-2,7-dicarbonitrile]

More lines, now with the values behind:

Row | SMILES | pIC50 (DGKα) | pIC50 (DGKζ)
11 | Cn1c(=O)c(C#N)c(N(C)[C@H]2CC[C@H](N(CC3COCCO3)c3ccc(F)cc3)CC2)c2nc(C#N)ccc21 (stereo partly drawn) [Example 149, trans-8-((-4-(((1,4-dioxan-2-yl)methyl)(4-fluorophenyl)amino)cyclohexyl)(methyl)amino)-5-methyl-6-oxo-5,6-dihydro-1,5-naphthyridine-2,7-dicarbonitrile] | 6.00 to 7.00 | 6.00 to 7.00
12 | Cc1cc2c(cc1N(CC1CCC1)[C@H]1CC[C@@H](N(C)c3cc(=O)n(C)c4ccc(C#N)nc34)CC1)OCO2 [Example 150, cis-8-((4-((cyclobutylmethyl)(6-methylbenzo[d][1,3]dioxol-5-yl)amino)cyclohexyl)(methyl)amino)-5-methyl-6-oxo-5,6-dihydro-1,5-naphthyridine-2-carbonitrile] | 6.00 to 7.00 | 7.00 to 8.00
13 | Cc1cc2c(cc1N(CC1CCC1)[C@H]1CC[C@@H](N(C)c3c(C#N)c(=O)n(C)c4ccc(Cl)nc34)CC1)OCO2 [Example 151, cis-6-chloro-4-((4-((cyclobutylmethyl)(6-methylbenzo[d][1,3]dioxol-5-yl)amino)cyclohexyl) (methyl)amino)-1-methyl-2-oxo-1,2-dihydro-1,5-naphthyridine-3-carbonitrile] | ≤ 6.00 | ≤ 6.00
14 | Cc1cc2c(cc1N(CC1CCC1)[C@H]1CC[C@@H](N(C)c3c(C#N)c(=O)n(C)c4ccc(C#N)nc34)CC1)OCO2 [Example 152, cis-8-((4-((cyclobutylmethyl)(6-methylbenzo[d][1,3]dioxol-5-yl)amino)cyclohexyl)(methyl)amino)-5-methyl-6-oxo-5,6-dihydro-1,5-naphthyridine-2,7-dicarbonitrile] | ≤ 6.00 | ≤ 6.00
15 | Cn1c(=O)c(C#N)c(N(C)[C@H]2CC[C@H](N(CC3CCC3)c3ccc(F)cc3CO)CC2)c2nc(Cl)ccc21 [Example 154, trans-6-chloro-4-((4-((cyclobutylmethyl)(4-fluoro-2-(hydroxymethyl)phenyl)amino)cyclohexyl)(methyl)amino)-1-methyl-2-oxo-1,2-dihydro-1,5-naphthyridine-3-carbonitrile] | ≤ 6.00 | ≤ 6.00
16 | Cn1c(=O)c(C#N)c(N(C)[C@H]2CC[C@H](N(CC3CCC3)c3ccc(F)cc3CO)CC2)c2nc(C#N)ccc21 [Example 155, trans-8-((4-((cyclobutylmethyl)(4-fluoro-2-(hydroxymethyl)phenyl)amino)cyclohexyl)(methyl)amino)-5-methyl-6-oxo-5,6-dihydro-1,5-naphthyridine-2,7-dicarbonitrile] | 7.00 to 8.00 | 7.00 to 8.00
17 | Cn1c(=O)cc(N(C)[C@H]2CC[C@@H](N(CC3CCOC3)c3ccc(F)c(OC(F)F)c3)CC2)c2nc(C#N)ccc21 (stereo partly drawn) [Example 156, cis-8-((-4-((3-(difluoromethoxy)-4-fluorophenyl) ((tetrahydrofuran-3-yl)methyl)amino)cyclohexyl) (methyl)amino)-5-methyl-6-oxo-5,6-dihydro-1,5-naphthyridine-2-carbonitrile] | 6.00 to 7.00 | 6.00 to 7.00
18 | Cc1cc(N(CC2CCOC2)[C@H]2CC[C@@H](N(C)c3cc(=O)n(C)c4ccc(C#N)nc34)CC2)ccc1F (stereo partly drawn) [Example 157, cis-8-((-4-((4-fluoro-3-methylphenyl) ((tetrahydrofuran-3-yl)methyl)amino)cyclohexyl) (methyl)amino)-5-methyl-6-oxo-5,6-dihydro-1,5-naphthyridine-2-carbonitrile] | 7.00 to 8.00 | 6.00 to 7.00
19 | Cn1c(=O)c(C#N)c(N(C)[C@H]2CC[C@@H](N(CC3CCOC3)c3ccc(F)c(OC(F)F)c3)CC2)c2nc(C#N)ccc21 (stereo partly drawn) [Example 158, cis-8-((-4-((3-(difluoromethoxy)-4-fluorophenyl) ((tetrahydrofuran-3-yl)methyl)amino)cyclohexyl) (methyl)amino)-5-methyl-6-oxo-5,6-dihydro-1,5-naphthyridine-2,7-dicarbonitrile] | 7.00 to 8.00 | 7.00 to 8.00
20 | Cc1cc(N(CC2CCOC2)[C@H]2CC[C@@H](N(C)c3c(C#N)c(=O)n(C)c4ccc(C#N)nc34)CC2)ccc1F (stereo partly drawn) [Example 159, cis-8-((-4-((4-fluoro-3-methylphenyl) ((tetrahydrofuran-3-yl)methyl)amino)cyclohexyl) (methyl)amino)-5-methyl-6-oxo-5,6-dihydro-1,5-naphthyridine-2,7-dicarbonitrile] | 7.00 to 8.00 | 7.00 to 8.00
21 | Cn1c(=O)c(C#N)c(N(C)[C@H]2CC[C@@H](N(CC3CCC3)c3cc4c(cc3F)OCO4)CC2)c2nc(C#N)ccc21 [Example 160, cis-8-((-4-((cyclobutylmethyl)(6-fluorobenzo[d][1,3]dioxol-5-yl)amino)cyclohexyl)(methyl)amino)-5-methyl-6-oxo-5,6-dihydro-1,5-naphthyridine-2,7-dicarbonitrile] | > 8.00 | 7.00 to 8.00
22 | Cn1c(=O)cc(N(C)[C@H]2CC[C@@H](N(CC3CCC3)c3cc4c(cc3F)OCO4)CC2)c2nc(C#N)ccc21 [Example 161, cis-8-((-4-((cyclobutylmethyl)(6-fluorobenzo[d][1,3]dioxol-5-yl)amino)cyclohexyl)(methyl)amino)-5-methyl-6-oxo-5,6-dihydro-1,5-naphthyridine-2-carbonitrile] | > 8.00 | 7.00 to 8.00
